How the values were obtained:
Format in all cases: functional, cell-based
MCF7 = assay: Cytotoxicity against human MCF7 cells assessed as inhibition of cell growth incubated for 48 hrs by MTT assay; details: MCF7, 48 h
A549 [1] = assay: Cytotoxicity against human A549 cells assessed as inhibition of cell growth incubated for 48 hrs by MTT assay; details: A549, 48 h
MDA-MB-231 = assay: Cytotoxicity against human MDA-MB-231 cells assessed as inhibition of cell growth incubated for 48 hrs by MTT assay; details: MDA-MB-231, 48 h
Huh-7 = assay: Cytotoxicity against human Huh-7 cells assessed as inhibition of cell growth incubated for 48 hrs by MTT assay; details: Huh-7, 48 h
HepG2 = assay: Cytotoxicity against human HepG2 cells assessed as inhibition of cell growth incubated for 48 hrs by MTT assay; details: HepG2, 48 h
A549 [2] = assay: Cytotoxicity against cisplatin-resistant human A549 cells assessed as inhibition of cell growth incubated for 48 hrs by MTT assay; details: A549, 48 h

NCCCCNCCCCN1C(=O)c2cccc3c(NC(=O)CN)ccc(c23)C1=O
IC50 (MCF7): > 30 µM
IC50 (A549 [1]): > 30 µM
IC50 (MDA-MB-231): > 30 µM
IC50 (Huh-7): 22.9 µM
IC50 (HepG2): > 30 µM
IC50 (A549 [2]): > 30 µM

Reference: ChEMBL document CHEMBL4842322, “A naphthalimide-polyamine conjugate preferentially accumulates in hepatic carcinoma metastases as a lysosome-targeted antimetastatic agent” (Eur J Med Chem, 2021)
